Results as given in PubChem BioAssay AID1919008 (Molecular Pharmacology Branch, DTP, NCI, 2023).

System: DMS-114 complex spheroids with HUVEC/MSC, growth % test/control
Experiment: Anticancer human tumor DMS-114 cell line growth inhibition [AhR];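 further: spheroids exposed to agents for 7 days before readout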;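 on viability, T/C: 100% = DMSO vehicle control wells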
Details: for IC50: curve of first compound; for viability, T/C: stronger effect = lower value
Summary of the method: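 Spheroids combined tumor cells with HUVEC endothelial cells and human MSCs as stroma. AhR antagonists were paired with standard or investigational drugs, each dosed in half-log steps down from near clinical Cmax, or from 10 microM where Cmax was unknown.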

[1] = second compound 0.1 µM, first compound 0.0316 µM
[2] = second compound 0.1 µM, first compound 0.1 µM
[3] = second compound 0.1 µM, first compound 0.316 µM
[4] = second compound 0.1 µM, first compound 1 µM
[5] = second compound 0.1 µM, first compound 3.16 µM
[6] = second compound 0.1 µM, first compound 10 µM
[7] = second compound 0.316 µM, first compound 0.0316 µM
[8] = second compound 0.316 µM, first compound 0.1 µM
[9] = second compound 0.316 µM, first compound 0.316 µM
[10] = second compound 0.316 µM, first compound 1 µM
[11] = second compound 0.316 µM, first compound 3.16 µM
[12] = second compound 0.316 µM, first compound 10 µM
[13] = second compound 1 µM, first compound 0.0316 µM
[14] = second compound 1 µM, first compound 0.1 µM
[15] = second compound 1 µM, first compound 0.316 µM
[16] = second compound 1 µM, first compound 1 µM
[17] = second compound 1 µM, first compound 3.16 µM
[18] = second compound 1 µM, first compound 10 µM
[19] = second compound 3.16 µM, first compound 0.0316 µM
[20] = second compound 3.16 µM, first compound 0.1 µM
[21] = second compound 3.16 µM, first compound 0.316 µM
[22] = second compound 3.16 µM, first compound 1 µM
[23] = second compound 3.16 µM, first compound 3.16 µM
[24] = second compound 3.16 µM, first compound 10 µM
[25] = second compound 10 µM, first compound 0.0316 µM
[26] = second compound 10 µM, first compound 0.1 µM
[27] = second compound 10 µM, first compound 0.316 µM
[28] = second compound 10 µM, first compound 1 µM
[29] = second compound 10 µM, first compound 3.16 µM
[30] = second compound 10 µM, first compound 10 µM

Compound | IC50 (second compound 0.1 µM) [nM] | IC50 (second compound 0.316 µM) [nM] | IC50 (second compound 1 µM) [nM] | IC50 (second compound 3.16 µM) [nM] | IC50 (second compound 10 µM) [nM] | viability, T/C [1] [%] | viability, T/C [2] [%] | viability, T/C [3] [%] | viability, T/C [4] [%] | viability, T/C [5] [%] | viability, T/C [6] [%] | viability, T/C [7] [%] | viability, T/C [8] [%] | viability, T/C [9] [%] | viability, T/C [10] [%] | viability, T/C [11] [%] | viability, T/C [12] [%] | viability, T/C [13] [%] | viability, T/C [14] [%] | viability, T/C [15] [%] | also measured
Nc1ccccc1NC(=O)c1ccc(CNC(=O)OCc2cccnc2)cc1 + Cc1cncc(-c2nc(NCCc3c[nH]c4ccccc34)c3ncn(C(C)C)c3n2)c1 | 592 | 574 | 610 | 348 | < 31.6 | 97.9 | 87.5 | 63.4 | 39.5 | 16.3 | 9.46 | 89.1 | 82.1 | 61.4 | 39.2 | 17.5 | 8.03 | 85.8 | 88.4 | 64.2 | viability, T/C [16]: 38.1%; viability, T/C [17]: 16.9%; viability, T/C [18]: 8.49%; viability, T/C [19]: 89.6%; viability, T/C [20]: 68.2%; viability, T/C [21]: 57%; viability, T/C [22]: 28.2%; viability, T/C [23]: 12.7%; viability, T/C [24]: 8.11%; viability, T/C [25]: 32%; viability, T/C [26]: 34.8%; viability, T/C [27]: 26.3%; viability, T/C [28]: 10.3%; viability, T/C [29]: 3.46%; viability, T/C [30]: 3.1%
O=C(C=Cc1cccc(S(=O)(=O)Nc2ccccc2)c1)NO + Cc1cncc(-c2nc(NCCc3c[nH]c4ccccc34)c3ncn(C(C)C)c3n2)c1 | 451 | 402 | 429 | 355 | < 31.6 | 100 | 91.9 | 59.5 | 27.5 | 11.7 | 9.54 | 84.3 | 77.7 | 55.4 | 28.3 | 10.2 | 9.73 | 90.1 | 80 | 59.2 | viability, T/C [16]: 26.9%; viability, T/C [17]: 10.7%; viability, T/C [18]: 9.6%; viability, T/C [19]: 78.8%; viability, T/C [20]: 75.5%; viability, T/C [21]: 52.8%; viability, T/C [22]: 21.3%; viability, T/C [23]: 8.43%; viability, T/C [24]: 7.76%; viability, T/C [25]: 46.9%; viability, T/C [26]: 34%; viability, T/C [27]: 20.1%; viability, T/C [28]: 9.92%; viability, T/C [29]: 4.09%; viability, T/C [30]: 4.15%
O=C(c1cc(Cc2n[nH]c(=O)c3ccccc23)ccc1F)N1CCN(C(=O)C2CC2)CC1 + Cc1cncc(-c2nc(NCCc3c[nH]c4ccccc34)c3ncn(C(C)C)c3n2)c1 | 9120 | 9820 | > 10000 | > 10000 | < 31.6 | 92.1 | 102 | 105 | 98.1 | 91.4 | 46.4 | 108 | 96 | 102 | 102 | 89.4 | 49.1 | 96.7 | 94.4 | 76.1 | viability, T/C [16]: 95.2%; viability, T/C [17]: 83.7%; viability, T/C [18]: 58.3%; viability, T/C [19]: 89.9%; viability, T/C [20]: 92.2%; viability, T/C [21]: 77.9%; viability, T/C [22]: 85%; viability, T/C [23]: 73.9%; viability, T/C [24]: 50.4%; viability, T/C [25]: 31.8%; viability, T/C [26]: 46.6%; viability, T/C [27]: 35.3%; viability, T/C [28]: 37%; viability, T/C [29]: 27.8%; viability, T/C [30]: 22.1%
